Measured values published in ChEMBL document CHEMBL4304804, “Synthesis and biological evaluation of calycanthaceous alkaloid analogs” (Bioorg Med Chem, 2019).
In brackets after ≈: the same amount, converted by molar mass. Activity calls are given as the source filed them. No cut-off for these calls is given here.

Experiments:
[1] = tested on: Colletotrichum orbiculare; assay: Antifungal activity against Colletotrichum orbiculare assessed as reduction in fungal cell growth incubated for 48 hrs by serial dilution method; type: functional
[2] = tested on: Fusarium oxysporum; assay: Antifungal activity against Fusarium oxysporum assessed as reduction in fungal cell growth incubated for 48 hrs by serial dilution method; type: functional
[3] = tested on: Penicillium citrinum; assay: Antifungal activity against Penicillium citrinum assessed as reduction in fungal cell growth incubated for 48 hrs by serial dilution method; type: functional
[4] = tested on: Fusarium oxysporum f. sp. vasinfectum; assay: Antifungal activity against Fusarium oxysporum sp. vasinfectum assessed as reduction in fungal cell growth incubated for 48 hrs by serial dilution method; type: functional
[5] = tested on: Ralstonia solanacearum; assay: Antibacterial activity against Ralstonia solanacearum assessed as reduction in bacterial cell growth incubated for 24 hrs by filter paper assay; type: functional
[6] = tested on: Pseudomonas aeruginosa; assay: Antibacterial activity against Pseudomonas aeruginosa assessed as reduction in bacterial cell growth incubated for 24 hrs by filter paper assay; type: functional
[7] = tested on: Curvularia lunata; assay: Antifungal activity against Curvularia lunata assessed as reduction in fungal cell growth incubated for 48 hrs by serial dilution method; type: functional
[8] = tested on: Escherichia coli; assay: Antibacterial activity against Escherichia coli assessed as reduction in bacterial cell growth incubated for 24 hrs by filter paper assay; type: functional
[9] = tested on: Candida tropicalis; assay: Antifungal activity against Candida tropicalis assessed as reduction in fungal cell growth incubated for 48 hrs by serial dilution method; type: functional
[10] = molecular target: Acetylcholinesterase (Electrophorus electricus, UniProt O42275); assay: Inhibition of electric eel AChE by Ellman's colorimetry
[11] = tested on: Bacillus cereus; assay: Antibacterial activity against Bacillus cereus assessed as reduction in bacterial cell growth incubated for 24 hrs by filter paper assay; type: functional
[12] = tested on: Cryptococcus neoformans; assay: Antifungal activity against Cryptococcus neoformans assessed as reduction in fungal cell growth incubated for 48 hrs by serial dilution method; type: functional
[13] = tested on: Verticillium dahliae; assay: Antifungal activity against Verticillium dahliae assessed as reduction in fungal cell growth incubated for 48 hrs by serial dilution method; type: functional
[14] = tested on: Cytospora; assay: Antifungal activity against Cytospora juglandis assessed as reduction in fungal cell growth incubated for 48 hrs by serial dilution method; type: functional
[15] = tested on: Aspergillus flavus; assay: Antifungal activity against Aspergillus flavus assessed as reduction in fungal cell growth incubated for 48 hrs by serial dilution method; type: functional
[16] = tested on: Candida; assay: Antifungal activity against […] assessed as reduction in fungal cell growth incubated for 48 hrs by serial dilution method; type: functional
[17] = tested on: Staphylococcus aureus; assay: Antibacterial activity against Staphylococcus aureus assessed as reduction in bacterial cell growth incubated for 24 hrs by filter paper assay; type: functional
[18] = tested on: Aspergillus niger; assay: Antifungal activity against Aspergillus niger assessed as reduction in fungal cell growth incubated for 48 hrs by serial dilution method; type: functional

Acetylcholinesterase, sequence (O42275 whole entry): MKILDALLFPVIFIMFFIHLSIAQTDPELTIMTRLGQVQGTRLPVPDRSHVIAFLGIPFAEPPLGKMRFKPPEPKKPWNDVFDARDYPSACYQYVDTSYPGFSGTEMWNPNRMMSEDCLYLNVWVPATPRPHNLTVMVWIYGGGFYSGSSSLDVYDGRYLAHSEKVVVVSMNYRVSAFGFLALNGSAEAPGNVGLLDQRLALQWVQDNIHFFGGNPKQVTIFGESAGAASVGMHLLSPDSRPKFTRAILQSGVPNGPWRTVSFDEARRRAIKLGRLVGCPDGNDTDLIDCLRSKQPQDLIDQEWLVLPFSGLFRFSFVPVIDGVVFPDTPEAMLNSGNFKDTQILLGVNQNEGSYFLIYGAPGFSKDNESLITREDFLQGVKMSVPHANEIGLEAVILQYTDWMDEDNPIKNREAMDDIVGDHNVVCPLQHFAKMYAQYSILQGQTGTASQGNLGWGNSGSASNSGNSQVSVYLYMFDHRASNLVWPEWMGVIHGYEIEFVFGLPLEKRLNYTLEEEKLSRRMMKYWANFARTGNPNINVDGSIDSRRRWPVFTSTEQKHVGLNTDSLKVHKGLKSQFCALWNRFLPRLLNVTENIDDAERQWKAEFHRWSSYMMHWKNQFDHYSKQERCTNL

SMILES	MIC [1]	MIC [2]	MIC [3]	MIC [4]	MIC [5]	MIC [6]	MIC [7]	MIC [8]	MIC [9]	IC50 [10]	MIC [11]	MIC [12]	MIC [13]	MIC [14]	MIC [15]	MIC [16]	MIC [17]	MIC [18]
CCCCC(=O)N1CCC2(Cc3ccccc3C)c3ccccc3N(Cc3ccccc3C)C12 (centres undefined)	inactive	125 µg/mL (≈ 276 µM)	250 µg/mL (≈ 552 µM)	inactive	250 µg/mL (≈ 552 µM)	250 µg/mL (≈ 552 µM)	inactive	250 µg/mL (≈ 552 µM)	125 µg/mL (≈ 276 µM)	328 µM	250 µg/mL (≈ 552 µM)	inactive	31.2 µg/mL (≈ 69 µM)	250 µg/mL (≈ 552 µM)	250 µg/mL (≈ 552 µM)	250 µg/mL (≈ 552 µM)	250 µg/mL (≈ 552 µM)	250 µg/mL (≈ 552 µM)
Cc1cccc(C(=O)N2CCCC3(O)c4ccccc4N(C)C23)c1 (centres undefined)	inactive	inactive	inactive	inactive	62.5 µg/mL (≈ 194 µM)	250 µg/mL (≈ 775 µM)	inactive	inactive	250 µg/mL (≈ 775 µM)	5.52 µM	inactive	inactive	250 µg/mL (≈ 775 µM)	inactive	inactive	inactive	250 µg/mL (≈ 775 µM)	inactive
CCCCCCC(=O)N1CCC2(Cc3cccc(C)c3)c3ccccc3N(Cc3cccc(C)c3)C12 (centres undefined)	250 µg/mL (≈ 520 µM)	125 µg/mL (≈ 260 µM)	250 µg/mL (≈ 520 µM)	250 µg/mL (≈ 520 µM)	125 µg/mL (≈ 260 µM)	125 µg/mL (≈ 260 µM)	62.5 µg/mL (≈ 130 µM)	250 µg/mL (≈ 520 µM)	250 µg/mL (≈ 520 µM)	18.2 µM	125 µg/mL (≈ 260 µM)	inactive	125 µg/mL (≈ 260 µM)	62.5 µg/mL (≈ 130 µM)	250 µg/mL (≈ 520 µM)	250 µg/mL (≈ 520 µM)	250 µg/mL (≈ 520 µM)	250 µg/mL (≈ 520 µM)
CCCC(=O)N1CCC2(Cc3cccc(C)c3)c3ccccc3N(Cc3cccc(C)c3)C12 (centres undefined)	250 µg/mL (≈ 570 µM)	125 µg/mL (≈ 285 µM)	inactive	inactive	250 µg/mL (≈ 570 µM)	250 µg/mL (≈ 570 µM)	inactive	250 µg/mL (≈ 570 µM)	125 µg/mL (≈ 285 µM)	6.52 µM	250 µg/mL (≈ 570 µM)	inactive	62.5 µg/mL (≈ 142 µM)	62.5 µg/mL (≈ 142 µM)	250 µg/mL (≈ 570 µM)	250 µg/mL (≈ 570 µM)	250 µg/mL (≈ 570 µM)	125 µg/mL (≈ 285 µM)
CC(=O)N1CCCC2(O)c3ccccc3N(C)C12 (centres undefined)	inactive	inactive	inactive	inactive	250 µg/mL (≈ 1010 µM)	250 µg/mL (≈ 1010 µM)	inactive	inactive	inactive	1.22 µM	inactive	inactive	inactive	inactive	inactive	inactive	250 µg/mL (≈ 1010 µM)	inactive
Cc1ccc(S(=O)(=O)N2CCC3(Cc4cccc(C)c4)c4ccccc4N(Cc4cccc(C)c4)C23)cc1 (centres undefined)	250 µg/mL (≈ 478 µM)	250 µg/mL (≈ 478 µM)	inactive	125 µg/mL (≈ 239 µM)	inactive	inactive	inactive	inactive	inactive	12.8 µM	125 µg/mL (≈ 239 µM)	inactive	62.5 µg/mL (≈ 120 µM)	250 µg/mL (≈ 478 µM)	250 µg/mL (≈ 478 µM)	250 µg/mL (≈ 478 µM)	inactive	250 µg/mL (≈ 478 µM)
CCCCC(=O)N1CCC2(Cc3cccc(C)c3)c3ccccc3N(Cc3cccc(C)c3)C12 (centres undefined)	inactive	125 µg/mL (≈ 276 µM)	250 µg/mL (≈ 552 µM)	inactive	250 µg/mL (≈ 552 µM)	125 µg/mL (≈ 276 µM)	inactive	250 µg/mL (≈ 552 µM)	250 µg/mL (≈ 552 µM)	0.133 µM	250 µg/mL (≈ 552 µM)	inactive	31.2 µg/mL (≈ 69 µM)	250 µg/mL (≈ 552 µM)	250 µg/mL (≈ 552 µM)	250 µg/mL (≈ 552 µM)	250 µg/mL (≈ 552 µM)	250 µg/mL (≈ 552 µM)
CCCCCC(=O)N1CCC2(Cc3ccccc3C)c3ccccc3N(Cc3ccccc3C)C12 (centres undefined)	250 µg/mL (≈ 536 µM)	125 µg/mL (≈ 268 µM)	250 µg/mL (≈ 536 µM)	inactive	250 µg/mL (≈ 536 µM)	125 µg/mL (≈ 268 µM)	125 µg/mL (≈ 268 µM)	inactive	inactive	217 µM	inactive	inactive	62.5 µg/mL (≈ 134 µM)	125 µg/mL (≈ 268 µM)	250 µg/mL (≈ 536 µM)	125 µg/mL (≈ 268 µM)	inactive	250 µg/mL (≈ 536 µM)
